Patent US20210355121A1, “FUSED TRICYCLIC KRAS INHIBITORS” (Incyte Corporation, priority 2020, published 2021)
pIC50: −log10 of the molar value.

Assays:
[1] = target: KRAS G12D (Homo sapiens, UniProt P01116, G12D); experiment: KRAS G12D GDP-GTP exchange assay (bodipy-GDP for GppNHp, with SOS1); type: biochemical; settings: 2.5 nM bodipy loaded KRAS G12D, 4 hours after GppNHp-SOS1; read-out: G12D_exchange (KRAS_G12D exchange assay IC50)
Experimental: (§1) The inhibitor potency of the exemplified compounds was determined in a fluorescence based guanine nucleotide exchange assay, which measures the exchange of bodipy-GDP (fluorescently labeled GDP) for GppNHp (Non-hydrolyzable GTP analog) to generate the active state of KRAS in the presence of SOS1 (guanine nucleotide exchange factor). Inhibitors were serially diluted in DMSO and a volume of 0.1 μL was transferred to the wells of a black low volume 384-well plate. 5 μL/well volume of bodipy-loaded KRAS G12C diluted to 5 nM in assay buffer (25 mM Hepes pH 7.5, 50 mM NaCl, 10 mM MgCl2 and 0.01% Brij-35) was added to the plate and pre-incubated with inhibitor for 2 hours at ambient temperature. Appropriate controls (enzyme with no inhibitor or with a G12C inhibitor (AMG-510)) were included on the plate. The exchange was initiated by the addition of a 5 μL/well volume containing 1 mM GppNHp and 300 nM SOS1 in assay buffer. The 10 μL/well reaction concentration of the bodipy-loaded KRAS G12C, GppNHp, and SOS1 were 2.5 nM, 500 uM, and 150 nM, respectively. The reaction plates were incubated at ambient temperature for 2 hours, a time estimated for complete GDP-GTP exchange in the absence of inhibitor. For the KRAS G12D and G12V mutants, similar guanine nucleotide exchange assays were used with 2.5 nM as final concentration for the bodipy loaded KRAS proteins and with 4 hours and 3 hours incubation after adding GppNHp-SOS1 mixture for G12D and G12V respectively. A cyclic peptide described to selectively bind G12D mutant (Sakamoto et al., BBRC 484.3 (2017), 605-611) or internal compounds with confirmed binding were used as positive controls in the assay plates. Fluorescence intensities were measured on a PheraStar plate reader instrument (BMG Labtech) with excitation at 485 nm and emission at 520 nm.
(§2) Either GraphPad prism or XLfit was used to analyze the data. The IC50 values were derived by fitting the data to a four parameter logistic equation producing a sigmoidal dose-response curve with a variable Hill coefficient. Prism equation: Y=Bottom+(Top−Bottom)/(1+10^((Log IC50−X)*Hill slope)); XLfit equation: Y=(A+((B−A)/(1+((X/C)^D)))) where X is the logarithm of inhibitor concentration and Y is the response.

[2] = target: KRAS G12V (Homo sapiens, UniProt P01116, G12V); experiment: KRAS G12V GDP-GTP exchange assay (bodipy-GDP for GppNHp, with SOS1); type: biochemical; settings: 2.5 nM bodipy loaded KRAS G12V, 3 hours after GppNHp-SOS1; read-out: G12V_exchange (KRAS_G12V exchange assay IC50)
Chain of KRAS G12V (P01116 1-188 isoform P01116-2 G12V): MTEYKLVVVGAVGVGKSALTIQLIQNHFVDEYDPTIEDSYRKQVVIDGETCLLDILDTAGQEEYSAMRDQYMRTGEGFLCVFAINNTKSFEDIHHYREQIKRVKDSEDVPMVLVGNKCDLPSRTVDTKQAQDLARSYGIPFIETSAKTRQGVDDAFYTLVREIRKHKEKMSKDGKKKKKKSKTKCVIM
Experimental: as §1, §2

Chain of KRAS G12D (P01116 1-188 isoform P01116-2 G12D): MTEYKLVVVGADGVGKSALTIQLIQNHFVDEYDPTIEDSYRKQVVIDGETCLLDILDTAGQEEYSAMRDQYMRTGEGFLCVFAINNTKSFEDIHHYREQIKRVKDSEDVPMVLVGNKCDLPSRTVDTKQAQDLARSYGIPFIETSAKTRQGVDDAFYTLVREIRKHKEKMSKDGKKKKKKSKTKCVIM

Row | SMILES | pIC50 [1] | pIC50 [2]
1 | COC(=O)CCc1cc2c(OC[C@@H]3CCCN3C)nc3c(F)c(-c4cc(O)cc5ccccc45)c(CCC#N)cc3c2n1C1C2CNC1C2 (single isomer, unassigned) [Example 29] | ≥ 7.00 | ≥ 7.00
2 | CN(C)C(=O)CCc1cc2c(OC[C@@H]3CCCN3C)nc3c(F)c(-c4cc(O)cc5ccccc45)c(CCC#N)cc3c2n1C1C2CNC1C2 (stereo partly drawn) [Example 30, 3-(1-(2-azabicyclo[2.1.1]hexan-5-yl)-8-(2-cyanoethyl)-6-fluoro-7-(3-hydroxynaphthalen-1-yl)-4-(((S)-1-methylpyrrolidin-2-yl)methoxy)-1H-pyrrolo[3,2-c]quinolin-2-yl)-N,N-dimethylpropanamide] | ≥ 7.00 | ≥ 7.00
3 | CCCc1cc2c(OC[C@@H]3CCCN3C)nc3c(F)c(-c4cc(O)cc5ccccc45)c(CCC#N)cc3c2n1C1C2CNC1C2 (stereo partly drawn) [Example 31, 3-(1-(2-azabicyclo[2.1.1]hexan-5-yl)-6-fluoro-7-(3-hydroxynaphthalen-1-yl)-4-(((S)-1-methylpyrrolidin-2-yl)methoxy)-2-propyl-1H-pyrrolo[3,2-c]quinolin-8-yl)propanenitrile] | ≥ 7.00 | ≥ 7.00
4 | CN1CCC[C@H]1COc1nc2c(F)c(-c3cc(O)cc4ccccc34)c(CCC#N)cc2c2c1cc(-c1cnn(C)c1)n2C1C2CNC1C2 (stereo partly drawn) [Example 32, 3-(1-(2-azabicyclo[2.1.1]hexan-5-y1)-6-fluoro-7-(3-hydroxynaphthalen-1-y1)-2-(1-methyl-1H-pyrazol-4-y1)-4-(((S)-1-methylpyrrolidin-2-yl)methoxy)-1H-pyrrolo[3,2-c]quinolin-8-yl)propanenitrile] | ≥ 7.00 | ≥ 7.00
5 | CN1CCC[C@H]1COc1nc2c(F)c(-c3cc(O)cc4ccccc34)c(CCC#N)cc2c2c1ccn2C1C2CNC1C2 (stereo partly drawn) [Example 33, 3-(1-(2-azabicyclo[2.1.1]hexan-5-yl)-6-fluoro-7-(3-hydroxynaphthalen-1-yl)-4-(((S)-1-methylpyrrolidin-2-yl)methoxy)-1H-pyrrolo[3,2-c]quinolin-8-yl)propanenitrile] | ≥ 7.00 | 6.00 to 7.00
6 | CN1CCC[C@H]1COc1nc2c(F)c(-c3cc(O)cc4ccccc34)c(CCC#N)cc2c2c1c(-c1ccccc1)cn2C1C2CNC1C2 (stereo partly drawn) [Example 34, 3-(1-(2-azabicyclo[2.1.1]hexan-5-yl)-6-fluoro-7-(3-hydroxynaphthalen-1-yl)-4-(((S)-1-methylpyrrolidin-2-yl)methoxy)-3-phenyl-1H-pyrrolo[3,2-c]quinolin-8-yl)propanenitrile] | 6.00 to 7.00 | 5.30 to 6.00
7 | CN1CCC[C@H]1COc1nc2c(F)c(-c3cc(O)cc4ccccc34)c(CCC#N)cc2c2c1c(-c1cccnc1)cn2C1C2CNC1C2 (stereo partly drawn) [Example 35, 3-(1-(2-azabicyclo[2.1.1]hexan-5-yl)-6-fluoro-7-(3-hydroxynaphthalen-1-yl)-4-(((S)-1-methylpyrrolidin-2-yl)methoxy)-3-(pyridin-3-yl)-1H-pyrrolo[3,2-c]quinolin-8-yl)propanenitrile] | ≥ 7.00 | 6.00 to 7.00
8 | Cc1ncc(-c2cn(C3C4CNC3C4)c3c2c(OC[C@@H]2CCCN2C)nc2c(F)c(-c4cc(O)cc5ccccc45)c(CCC#N)cc23)o1 (stereo partly drawn) [Example 36, 3-(1-(2-azabicyclo[2.1.1]hexan-5-yl)-6-fluoro-7-(3-hydroxynaphthalen-1-yl)-3-(2-methyloxazol-5-yl)-4-(((S)-1-methylpyrrolidin-2-yl)methoxy)-1H-pyrrolo[3,2-c]quinolin-8-yl)propanenitrile] | ≥ 7.00 | 6.00 to 7.00
9 | Cc1ncc(-c2cn(C3C4CNC3C4)c3c2c(OC[C@@H]2CCCN2C)nc2c(F)c(-c4cc(O)cc5ccccc45)c(CCC#N)cc23)s1 (stereo partly drawn) [Example 37, 3-(1-(2-azabicyclo[2.1.1]hexan-5-yl)-6-fluoro-7-(3-hydroxynaphthalen-1-yl)-4-(((S)-1-methylpyrrolidin-2-yl)methoxy)-3-(2-methylthiazol-5-yl)-1H-pyrrolo[3,2-c]quinolin-8-yl)propanenitrile] | ≥ 7.00 | 6.00 to 7.00
10 | CN1CCC[C@H]1COc1nc2c(F)c(-c3cc(O)cc4ccccc34)c(CCC#N)cc2c2c1c(-c1cnn(C)c1)cn2C1C2CNC1C2 (stereo partly drawn) [Example 38, 3-(1-(2-azabicyclo[2.1.1]hexan-5-yl)-6-fluoro-7-(3-hydroxynaphthalen-1-yl)-3-(1-methyl-1H-pyrazol-4-yl)-4-(((S)-1-methylpyrrolidin-2-yl)methoxy)-1H-pyrrolo[3,2-c]quinolin-8-yl)propanenitrile] | ≥ 7.00 | 6.00 to 7.00
11 | CN1CCC[C@H]1COc1nc2c(F)c(-c3cc(O)cc4ccccc34)c(CCC#N)cc2c2c1cc(-c1ccn(C)n1)n2C1C2CNC1C2 (stereo partly drawn) [Example 39, 3-(1-(2-azabicyclo[2.1.1]hexan-5-yl)-6-fluoro-7-(3-hydroxynaphthalen-1-yl)-2-(1-methyl-1H-pyrazol-3-yl)-4-(((S)-1-methylpyrrolidin-2-yl)methoxy)-1H-pyrrolo[3,2-c]quinolin-8-yl)propanenitrile] | ≥ 7.00 | ≥ 7.00
12 | CN1CCC[C@H]1COc1nc2c(F)c(-c3cc(O)cc4ccccc34)c(CCC#N)cc2c2c1cc(Cc1ccccc1)n2C1C2CNC1C2 (stereo partly drawn) [Example 40, 3-(2-benzyl-1-(2-azabicyclo[2.1.1]hexan-5-yl)-6-fluoro-7-(3-hydroxynaphthalen-1-yl)-4-(((S)-1-methylpyrrolidin-2-yl)methoxy)-1H-pyrrolo[3,2-c]quinolin-8-yl)propanenitrile] | 6.00 to 7.00 | 5.30 to 6.00
13 | CN1CCC[C@H]1COc1nc2c(F)c(-c3cc(O)cc4ccccc34)c(CCC#N)cc2c2c1c(-c1cn[nH]c1)cn2C1C2CNC1C2 (stereo partly drawn) [Example 41, 3-(1-(2-azabicyclo[2.1.1]hexan-5-yl)-6-fluoro-7-(3-hydroxynaphthalen-1-yl)-4-(((S)-1-methylpyrrolidin-2-yl)methoxy)-3-(1H-pyrazol-4-yl)-1H-pyrrolo[3,2-c]quinolin-8-yl)propanenitrile] | ≥ 7.00 | ≥ 7.00
14 | CN1CCC[C@H]1COc1nc2c(F)c(-c3cc(O)cc4ccccc34)c(CCC#N)cc2c2c1c(-c1ccc(=O)[nH]c1)cn2C1C2CNC1C2 (stereo partly drawn) [Example 42, 3-(1-(2-azabicyclo[2.1.1]hexan-5-yl)-6-fluoro-7-(3-hydroxynaphthalen-1-yl)-4-(((S)-1-methylpyrrolidin-2-yl)methoxy)-3-(6-oxo-1,6-dihydropyridin-3-yl)-1H-pyrrolo[3,2-c]quinolin-8-yl)propanenitrile] | ≥ 7.00 | 6.00 to 7.00
15 | CN1CCC[C@H]1COc1nc2c(F)c(-c3cc(O)cc4ccccc34)c(CCC#N)cc2c2c1c(Cl)cn2C1C2CNC1C2 (stereo partly drawn) [Example 43, 3-(1-(2-azabicyclo[2.1.1]hexan-5-yl)-3-chloro-6-fluoro-7-(3-hydroxynaphthalen-1-yl)-4-(((S)-1-methylpyrrolidin-2-yl)methoxy)-1H-pyrrolo[3,2-c]quinolin-8-yl)propanenitrile] | ≥ 7.00 | 6.00 to 7.00
16 | CN1CCC[C@H]1COc1nc2c(F)c(-c3cc(O)cc4ccccc34)c(CCC#N)cc2c2c1c(C(=O)NCCO)cn2C1C2CNC1C2 (stereo partly drawn) [Example 44, 1-(2-azabicyclo[2.1.1]hexan-5-yl)-8-(2-cyanoethyl)-6-fluoro-N-(2-hydroxyethyl)-7-(3-hydroxynaphthalen-1-yl)-4-(((S)-1-methylpyrrolidin-2-yl)methoxy)-1H-pyrrolo[3,2-c]quinoline-3-carboxamide] | ≥ 7.00 | 6.00 to 7.00
17 | CN1CCC[C@H]1COc1nc2c(F)c(-c3cc(O)cc4ccccc34)c(CCC#N)cc2c2c1c(C(=O)NCc1ccccc1)cn2C1C2CNC1C2 (stereo partly drawn) [Example 45, N-Benzyl-1-(2-azabicyclo[2.1.1]hexan-5-yl)-8-(2-cyanoethyl)-6-fluoro-7-(3-hydroxynaphthalen-1-yl)-4-(((S)-1-methylpyrrolidin-2-yl)methoxy)-1H-pyrrolo[3,2-c]quinoline-3-carboxamide] | ≥ 7.00 | 6.00 to 7.00
18 | CN1CCC[C@H]1COc1nc2c(F)c(-c3cc(O)cc4ccccc34)c(CCC#N)cc2c2c1c(CO)cn2C1C2CNC1C2 (stereo partly drawn) [Example 46, 3-(1-(2-Azabicyclo[2.1.1]hexan-5-yl)-6-fluoro-3-(hydroxymethyl)-7-(3-hydroxynaphthalen-1-yl)-4-(((S)-1-methylpyrrolidin-2-yl)methoxy)-1H-pyrrolo[3,2-c]quinolin-8-yl)propanenitrile] | ≥ 7.00 | 6.00 to 7.00
